Source: US11311576B2, “Methods of use for CAR T cells” (Seattle Children's Hospital, priority 2018, dated 2022)

What was measured:
MDA-MB-231 tumors = assay: CAR-T therapy with EC17 fixed dose or dose de-escalation in mice bearing MDA-MB-231 tumors; assay type: in vivo
From the text: The effect of EC17 dose de-escalation was investigated on the anti-tumor activity and the toxicity (body weight changes) of CAR-T therapy. Two different anti-fluorescein scFv were used for the CAR constructions (FIG. 1). The first construct of CAR contains the following domains: antiFL(FITC-E2)scFv-IgG4 hinge (CH2 (L235D, N297Q)-CH3)-CD28 TM-4-1BB-CD3z-T2A-EGFRt. The second construct of CAR contains the following domains: antiFL(FITC-4M5.3)scFv-IgG4 hinge (CH2 (L235D, N297Q)-CH3)-CD28 TM-4-1BB-CD3z-T2A-EGFRt. The nucleic acid sequence and amino acid sequence of the CAR of each construct are shown as SEQ ID NOS:1 to 4. Human T cells were isolated, activated and transduced with a lentiviral vector carrying the appropriate CAR gene. CD4+ T cells with the CAR-modification and CD8+ T cells with the CAR-modification were isolated and cultured separately in vitro for about 7 days. CD4+ CAR-T cells and CD8+ CAR-T cells were mixed at a 1:1 ratio before i.v. administration for animal studies.
The second construct 4M5.3-CAR (antiFL(FITC-4M5.3) scFv-IgG4 hinge (CH2 (L235D, N297Q)-CH3)-CD28 TM-4-1BB-CD3z-T2A-EGFRt) was also evaluated. Mice bearing MDA-MB-231 tumors (150-250 mm^3) were used for in vivo studies to evaluate 4M5.3-CAR-T cells. […]

HOS-FRα tumor = assay: CRS toxicity and sodium fluorescein rescue in HOS-FRα tumor-bearing mice; assay type: in vivo; settings: intravenous ~95 mg/kg on day 13, plasma 6 hours later, 35 million total CAR-T cells
Description: All animal care and use were performed according to NIH guidelines and in compliance with protocols approved by the Purdue University Animal Use and Care Committee. Female 4 to 5-week-old NOD/SCID gamma (NSG™) mice (stock number: 005557) were purchased from The Jackson Laboratory (Bar Harbor, Me.). Unless specifically indicated, all animals were maintained on a FA-deficient diet (TestDiet, St. Louis, Mo.) upon arrival and throughout the study. To establish subcutaneous xenografts, MDA-MB-231 and HOS-FRα were implanted in the right flank region at 2.5×10^6 and 1×10^6 cells per animal, respectively. For intravenous xenografts, THP1-FRb cells were inoculated at 5×10^6 cells per animal. Subcutaneous tumors were measured 2-3 times per week with a caliper and calculated using the ellipsoidal formula […]. […] All animal doses (CAR-T cells, EC17, sodium fluorescein) were given intravenously.
Depending on the CAR-T cell dose and how EC17 is administered, tumor-bearing mice receiving FITC-specific CAR-T cells can experience severe CRS and varying degrees of body weight loss. […] On the days immediately following each EC17 dose, animals were scored and rescue agents such as sodium fluorescein, folic acid and leucovorin were used to mitigate CRS toxicity. […]

O=C([O-])c1ccccc1-c1c2ccc(=O)cc-2oc2cc([O-])ccc12.[Na+].[Na+] [sodium fluorescein]
antitumor activity after NaFL rescue (MDA-MB-231 tumors; E2-CAR-T 10 and 20 million cells, EC17 500 nmol/kg SIW, NaFL 6 umol/kg): antitumor activity was maintained | antitumor activity after NaFL rescue (MDA-MB-231 tumors; E2-CAR-T 30 million cells with EC17 dose de-escalation): antitumor activity is maintained | CAR-T cell derived human cytokines after rescue (HOS-FRα tumor): acted very quickly to reduce CAR-T cell derived human cytokines
